Results from paper PMC6149869 (OncoTargets and therapy, 2018).

What was measured:
MDR-1 = test: qPCR expression of PXR downstream gene MDR-1 in MHCC97-H cells; settings: human
MHCC97-H cells [1] = test: Subcutaneous HCC tumor growth model; format: in vivo, nude mice; settings: sorafenib 2 mg/kg oral; Figure 3
MHCC97-H cells [2] = test: Intrahepatic HCC tumor growth model; format: in vivo, nude mice; settings: sorafenib 2 mg/kg oral; Figure 4
[3] = Clearance of sorafenib in cultured MHCC97-H cells; format: in vitro ADME; settings: human, Half-life (t1/2 value) of Sor, 1 µmol/L sorafenib

| Structure (SMILES) | EC50 at 24 h (MDR-1) | Effect on subcutaneous growth of HCC cells in nude mice (MHCC97-H cells [1]) | Effect on intrahepatic growth of MHCC97-H cells in livers of nude mice (MHCC97-H cells [2]) | half-life at 1 µmol/L ([3]; miR-140-3p) | half-life at 1 µmol/L ([3]; miR-140-3p + inhibitor) |
| --- | --- | --- | --- | --- | --- |
| CO[C@H]1/C=C/O[C@@]2(C)Oc3c(C)c(O)c4c(O)c(c(/C=N/N5CCN(C)CC5)c(O)c4c3C2=O)NC(=O)/C(C)=C\C=C\[C@H](C)[C@H](O)[C@@H](C)[C@@H](O)[C@@H](C)[C@H](OC(C)=O)[C@@H]1C [rifampicin, Rifampicin] | 1.81 ± 0.29 µM |  |  |  |  |
| CNC(=O)c1cc(Oc2ccc(NC(=O)Nc3ccc(Cl)c(C(F)(F)F)c3)cc2)ccn1 [Sor, sorafenib] |  | significantly inhibit the subcutaneous growth of HCC cells | significantly inhibit the intrahepatic growth of MHCC97-H cells | 21.6 ± 5.3 h | 14.7 ± 5.87 h |
